The values that follow come from patent US11472792B2, “Herbicidal mixtures” (SYNGENTA CROP PROTECTION AG, priority 2019, dated 2022).

What all share (type): in vivo
The subject of assay [1] is Amaranthus retroflexus (AMARE). In words: Herbicidal efficacy, pre-emergence application (glasshouse). To be noted: Amaranthus retroflexus, 312 h, evaluated visually after 13 days, 100=total damage, 0=no damage, read-out: percentage phytotoxicity to the plant, AMARE. On the procedure: (§1) Seeds of a variety of test species [Ipomoea hederacea (IPOHE); Zea mays (ZEAMX); Echinochloa crus-galli (ECHCG); Setaria faberi (SETFA); Abutilon theophrasti (ABUTH); Amaranthus retroflexus (AMARE)] were sown in standard sterilised soil in pots. After cultivation for one day (pre-emergence) or after 8 days cultivation (post-emergence) under controlled conditions in a glasshouse (at 24/16° C., day/night; 14 hours light; 65% humidity), the plants were sprayed with an aqueous spray solution derived from the formulation of the technical active ingredient in acetone/water (50:50) solution containing 0.5% Tween 20 (polyoxyethelyene sorbitan monolaurate, CAS RN 9005-64-5), subsequently diluted in water, and sprayed to give the stated application rate.
(§2) The test plants were then grown under controlled conditions in a glasshouse (at 24/16° C., day/night; 14 hours light; 65% humidity) and watered twice daily.
(§3) After 13 days for pre and post-emergence, the test was evaluated visually for percentage phytotoxicity to the plant (where 100=total damage to plant; 0=no damage to plant).

Assay [2] deals with Abutilon theophrasti (ABUTH). The assay is described as above. To be noted: Abutilon theophrasti, 312 h, evaluated visually after 13 days, 100=total damage, 0=no damage, read-out: percentage phytotoxicity to the plant, ABUTH. The protocol:
as §1, §2, §3

For assay [3], the system named is Setaria faberi (SETFA). Described as above. To be noted: Setaria faberi, 312 h, evaluated visually after 13 days, 100=total damage, 0=no damage, read-out: percentage phytotoxicity to the plant, SETFA. On the procedure:
as §1, §2, §3

The test system of assay [4] is Echinochloa crus-galli (ECHCG). Described as above. As to conditions: Echinochloa crus-galli, 312 h, evaluated visually after 13 days, 100=total damage, 0=no damage, read-out: percentage phytotoxicity to the plant, ECHCG. On the procedure: as §1, §2, §3
Assay [5] has as its system Ipomoea hederacea (IPOHE). The assay is described as above. As to conditions: Ipomoea hederacea, 312 h, evaluated visually after 13 days, 100=total damage, 0=no damage, read-out: percentage phytotoxicity to the plant, IPOHE. The protocol:
as §1, §2, §3

For assay [6], the system named is Zea mays (ZEAMX). The description is as above. As to conditions: Zea mays, 312 h, evaluated visually after 13 days, 100=total damage, 0=no damage, read-out: percentage phytotoxicity to the plant, ZEAMX. The protocol:
as §1, §2, §3

The test system of assay [7] is Amaranthus retroflexus (AMARE). Description: Herbicidal efficacy, post-emergence application (glasshouse). As to conditions: Amaranthus retroflexus, 312 h, evaluated visually after 13 days, 100=total damage, 0=no damage, read-out: percentage phytotoxicity to the plant, AMARE. On the procedure:
as §1, §2, §3

Assay [8] has as its system Abutilon theophrasti (ABUTH). Described as above. To be noted: Abutilon theophrasti, 312 h, evaluated visually after 13 days, 100=total damage, 0=no damage, read-out: percentage phytotoxicity to the plant, ABUTH. The protocol:
as §1, §2, §3

For assay [9], the system named is Setaria faberi (SETFA). The description is as above. As to conditions: Setaria faberi, 312 h, evaluated visually after 13 days, 100=total damage, 0=no damage, read-out: percentage phytotoxicity to the plant, SETFA. The protocol: as §1, §2, §3
Assay [10] concerns Echinochloa crus-galli (ECHCG). The assay is described as above. To be noted: Echinochloa crus-galli, 312 h, evaluated visually after 13 days, 100=total damage, 0=no damage, read-out: percentage phytotoxicity to the plant, ECHCG. On the procedure:
as §1, §2, §3

The subject of assay [11] is Ipomoea hederacea (IPOHE). The assay is described as above. To be noted: Ipomoea hederacea, 312 h, evaluated visually after 13 days, 100=total damage, 0=no damage, read-out: percentage phytotoxicity to the plant, IPOHE. The protocol: as §1, §2, §3
The subject of assay [12] is Zea mays (ZEAMX). The assay is described as above. To be noted: Zea mays, 312 h, evaluated visually after 13 days, 100=total damage, 0=no damage, read-out: percentage phytotoxicity to the plant, ZEAMX. On the procedure: as §1, §2, §3

Regarding `CN1C[C@H](c2cc(C(F)(F)F)n(C)n2)[C@@H](C(=O)Nc2cccc(F)c2OC(F)F)C1=O` [Compound 2.10, (3S,4R)-N-[2-(difluoromethoxy)-3-fluoro-phenyl]-1-methyl-4-[1-methyl-5-(trifluoromethyl)pyrazol-3-yl]-2-oxo-pyrrolidine-3-carboxamide], the pest or weed control at 250 g/ha in [1] was 0%; in assay [2], 0%; in the assay on Setaria faberi (SETFA) [3], 90%; in assay [4], 90%; in assay [5], 20%; in assay [7] it was 0%. Besides, the pest or weed control at 250 g/ha in assay [8] worked out at 0%; with Setaria faberi (SETFA) [9], 80%; in assay [10], 80%; in [11] it was 30%. The plant injury at 250 g/ha in the assay on Zea mays (ZEAMX) [6] came to 40%; in the assay with Zea mays (ZEAMX) [12], 80%.
